One compound from patent publication US20070167403A1, “Remedy for spinal canal stenosis” (priority 2003, published 2007) can be followed below.

For this data set, the system named is rat. The data set is classed as in vivo. The note with it: intravenous administration. The method, then:
It has been confirmed that the compounds used in the present invention have low toxicity and are sufficiently safe for use as pharmaceutical preparations. For example, the maximal tolerated dose of the compound A (lysine salt of (5Z,9β,11α,13E)-17,17-propano-11,16-dihydroxy-9-chloro-20-norprosta-5,13-dienoic acid) in the compound represented by formula (I) used in the present invention was 30 mg/kg weight or more for rat intravenous administration.

Turning to `CCC1(C(O)CC=CC2C(O)CC(Cl)C2CC=CCCCC(=O)O)CCC1.NCCCCC(N)C(=O)O` (stereo not drawn) [Compound A, (5Z,9β,11α,13E)-17,17-propano-11,16-dihydroxy-9-chloro-20-norprosta-5,13-dienoic acid lysine salt], the maximal tolerated dose is on record as ≥ 30 mg/kg weight.
